Results published in US7838463B2, “Safeners based on acrylic-aliphatic carboxylic acid derivatives” (Bayer CropScience AG, priority 2003, dated 2010).

Tests used:
Assay type in all cases: in vivo
Amaranthus retroflexus [1] = test: Post-emergence application of herbicide H3 (glufosinate-ammonium) and safener by the tank mix method: herbicidal action; details: safener 250 g a.i./ha + herbicide H3 (glufosinate-ammonium) 250 g a.i./ha, post-emergence tank mix; four weeks
Source text: (§1) Seeds of various crop plants and weed species were sown in sandy loam soil in round plastic pots of a diameter of 13 cm and covered with a layer of sandy loam of a thickness of about 1 cm. The pots were placed in a greenhouse under favorable growth conditions for a duration of about two to three weeks, allowing the plants to reach a growth stage of 2 to 4 leaves. The herbicides, in the form of liquid (for example emulsion concentrates, aqueous solutions) or dry (for example water-dispersible powders) formulations, were diluted with deionized water to the required concentrations and applied to the green parts of the plants and the uncovered part of the surface of the soil with a spray bar using a water application rate of 300 liters per hectare. In the experiment shown below, the safeners were used as 20 percent strength water-dispersible powders and the herbicide glufosinate-ammonium as a commercial 20 percent strength aqueous surfactant-containing solution (results see table 1.2.2).
(§2) The pots were placed in a greenhouse under favorable growth conditions. Visual scoring of the herbicidal action was carried out four weeks after the herbicidal application. Evaluation was carried out on a percentage basis by comparison with untreated control plants (0%=no noticeable effect compared with the untreated plant, 100%=treated plant dies).

Chenopodium album [2] = test: as above; details: safener 250 g a.i./ha + herbicide H3 (glufosinate-ammonium) 250 g a.i./ha, post-emergence tank mix; four weeks
Source text: as §1, §2

[3] = test system: Zea mays (corn), cv. 'Lorenzo'; test: Pre-emergence application of herbicide H1 (isoxaflutole) after seed dressing with safener; details: seed dressing with safener 1 g a.i./kg of seed
Method: (§3) The number of crop plant seeds required for each application rate of safener was calculated. Sufficient seeds were weighed-out into glass bottles having a screw-on lid. The volume of the glass bottles was approximately twice that of the seeds weighed out.
(§4) The safeners were formulated as 20 percent strength water-dispersible powders. These formulations were weighed out to give the required application rates (g of a.i./kg of seed). The samples were added to the seed in the glass containers, and sufficient water to form a suitable seed dressing was then added. The glass bottles were closed and then mounted in an overhead shaker (which turns the bottles at moderate speed for a period of up to one hour) so that the seeds were uniformly covered with the seed dressing. The bottles were opened and the seed was ready for use in pre-emergence or post-emergence experiments, as described below.
(§5) The seeds which had been treated with safeners and untreated seeds as controls were sown in sandy loam soil in round plastic pots of a diameter of 13 cm and covered with a layer of sandy loam of a thickness of about 1 cm. The herbicides in the form of liquid (for example emulsion concentrates) or dry (for example water-dispersible powders) formulations were diluted with deionized water to the required concentrations and applied to the surface of the soil with a spray bar using a water application rate of 300 liters per hectare. In the two experiments shown below (results see tables 2.2.1 and 2.2.2), the herbicide isoxaflutole was used as an aqueous suspension concentrate.
as §2, with “after the herbicide application. Evaluation” for “after the herbicidal application. Evaluation”

[4] = test system: Glycine max (soybean), cv. 'Lambert'; test: as above; details: seed dressing with safener 1 g a.i./kg of seed
Method: as §3, §4, §5
as §2, with “after the herbicide application. Evaluation” for “after the herbicidal application. Evaluation”

[5] = test system: Zea mays (corn), cv. 'Lorenzo'; test: Post-emergence application of herbicide H3 (glufosinate-ammonium) and safener by the tank mix method: crop damage; details: safener 250 g a.i./ha + herbicide H3 (glufosinate-ammonium) 250 g a.i./ha, post-emergence tank mix
Source text: as §1, §2

Amaranthus retroflexus [6] = test: Post-emergence application of herbicide H2 (foramsulfuron) and safener by the tank mix method: herbicidal action; details: four weeks
Source text: (§6) Seeds of various crop plants and weed species were sown in sandy loam soil in round plastic pots of a diameter of 13 cm and covered with a layer of sandy loam of a thickness of about 1 cm. The pots were placed in a greenhouse under favorable growth conditions for a period of about two to three weeks, allowing the plants to reach a growth stage of 2 to 4 leaves. The herbicides in the form of liquid (for example emulsion concentrates) or dry (for example water-dispersible powders) formulations were mixed with a standard additive (based on rapeseed oil methyl ester), diluted with deionized water to the required concentrations and applied to the green parts of the plants and the uncovered part of the soil surface with a spray bar using a water application rate of 300 liters per hectare. In the experiment shown below, safener and the herbicide foramsulfuron were in each case used as 20 percent strength water-dispersible powder (results see table 1.2.1). The pots were placed in a greenhouse under favorable growth conditions. Visual scoring of the herbicidal action was carried out four weeks after the herbicide application. Evaluation was carried out on a percentage basis by comparison with untreated control plants (0%=no noticeable effect compared with the untreated plant, 100%=treated plant dies).

Setaria viridis [7] = test: as above; details: four weeks
Source text: as §6

[8] = test system: Zea mays (corn), cv. 'Lorenzo'; test: Pre-emergence application of herbicide H1 (isoxaflutole) and safener by the tank mix method: crop damage; details: safener 250 g a.i./ha + herbicide H1 (isoxaflutole) 100 g a.i./ha, pre-emergence tank mix
Method: (§7) Seeds of various crop plants and weed species were sown in sandy loam soil in round plastic pots of a diameter of 13 cm and covered with a layer of sandy loam of a thickness of about 1 cm. Herbicides and safeners in the form of liquid (for example emulsion concentrates) or dry (for example water-dispersible powders) formulations were diluted with deionized water to the required concentrations and applied to the surface of the soil with a spray bar using a water application rate of 300 liters per hectare. In the experiment shown below, the safeners were used as 20 percent strength water-dispersible powders and the herbicide isoxaflutole was used as an aqueous suspension concentrate (see table 1.1.1). The pots were placed in a greenhouse under favorable growth conditions. Visual scoring of the herbicidal action was carried out four weeks after the herbicide application. Evaluation was carried out on a percentage basis by comparison with untreated control plants (0%=no noticeable effect compared with the untreated plant, 100%=treated plant dies).

[9] = test system: Zea mays (corn), cv. 'Lorenzo'; test: Post-emergence application of herbicide H2 (foramsulfuron) after seed dressing with safener; details: for % damage in ZEAMA: four weeks
Method: The number of crop plant seeds required for each application rate of safener was calculated. Sufficient seeds were weighed-out into glass bottles having a screw-on lid. The volume of the glass bottles was approximately twice that of the seeds weighed out. The safeners were formulated as 20 percent strength water-dispersible powders. These formulations were weighed out to give the required application rates (g of a.i./kg of seed). The samples were added to the seed in the glass containers, and sufficient water to form a suitable seed dressing was then added. The glass bottles were closed and then mounted in an overhead shaker (which turns the bottles at moderate speed for a period of up to one hour) so that the seeds were uniformly covered with the seed dressing. The bottles were opened and the seed was ready for use in pre-emergence or post-emergence experiments, as described below. The seeds treated with safener and untreated seeds were sown in sandy loam soil in round plastic pots of a diameter of 13 cm and covered with a layer of sandy loam of a thickness of about 1 cm. The pots were placed in a greenhouse under favorable growth conditions for a period of about two to three weeks, allowing the plants to reach a growth stage of 2 to 4 leaves. The herbicides in the form of liquid (for example emulsion concentrates) or dry (for example water-dispersible powders) formulations were mixed with a standard additive (based on rapeseed oil methyl ester), diluted with deionized water to the required concentrations and applied to the green parts of the plants and the uncovered part of the soil surface with a spray bar using a water application rate of 300 liters per hectare. In the experiment shown below, the herbicide foramsulfuron was used as 20 percent strength water-dispersible powder (results see table 2.3.1). The pots were placed in a greenhouse under favorable growth conditions. Visual scoring of the herbicidal action was carried out four weeks after the herbicide application. Evaluation was carried out on a percentage basis by comparison with untreated control plants (0%=no noticeable effect compared with the untreated plant, 100%=treated plant dies).

[10] = test system: Zea mays (corn), cv. 'Lorenzo'; test: Post-emergence application of herbicide H2 (foramsulfuron) and safener by the tank mix method: crop damage; details: for Safener action as % damage reduction in crop plants: ZEAMA, versus herbicide alone
Source text: as §6

Chenopodium album [11] = test: Pre-emergence application of herbicide H1 (isoxaflutole) and safener by the tank mix method: herbicidal action; details: safener 250 g a.i./ha + herbicide H1 (isoxaflutole) 100 g a.i./ha, pre-emergence tank mix; four weeks
Method: as §7

Setaria viridis [12] = test: as above; details: safener 250 g a.i./ha + herbicide H1 (isoxaflutole) 100 g a.i./ha, pre-emergence tank mix; four weeks
Method: as §7

[13] = then herbicide H1 (isoxaflutole) 100 g a.i./ha pre-emergence, four weeks
[14] = safener 250 g a.i./ha + herbicide H2 (foramsulfuron) 40 g a.i./ha, post-emergence tank mix
[15] = safener 250 g a.i./ha + herbicide H2 (foramsulfuron) 40 g a.i./ha, post-emergence tank mix, visual scoring four weeks after application
[16] = herbicide H2 (foramsulfuron) 40 g a.i./ha alone, no safener, post-emergence

O=C(O)C=Cc1ccccc1O [Comp. 17, 2-hydroxycinnamic acid]
Herbicidal action as % damage in AMARE (Amaranthus retroflexus [1]): 95%
Herbicidal action as % damage in CHEAL (Chenopodium album [2]): 97%
Safener action as % damage reduction in crop plants ([3]; ZEAMA, herbicide H1 (isoxaflutole) 100 g a.i./ha pre-emergence, versus untreated seed): 68%
% damage in ZEAMA [3, 13]: 8%
Safener action as % damage reduction in crop plants ([4]; GLXMA, herbicide H1 (isoxaflutole) 100 g a.i./ha pre-emergence, versus untreated seed): 60%
% damage in GLXMA [4, 13]: 33%
Safener action as % damage reduction in crop plants ([5]; ZEAMA, versus herbicide alone): 61%
% damage in ZEAMA ([5]; visual scoring four weeks after application): 24%
Herbicidal action as % damage in AMARE (Amaranthus retroflexus [6]; [14]): 94%
Herbicidal action as % damage in SETVI (Setaria viridis [7]; [14]): 98%
Safener action as % damage reduction in crop plants ([8]; ZEAMA, versus herbicide alone): 82%
% damage in ZEAMA ([8]; visual scoring four weeks after application, 0%=no effect, 100%=plant dies): 5%
Safener action as % damage reduction in crop plants ([9]; ZEAMA, seed dressing with safener 1 g a.i./kg of seed, herbicide H2 (foramsulfuron) 40 g a.i./ha post-emergence, versus untreated seed): 81%
% damage in ZEAMA ([9]; seed dressing with safener 1 g a.i./kg of seed, then herbicide H2 (foramsulfuron) 40 g a.i./ha post-emergence): 6%
Safener action as % damage reduction in crop plants [10, 14]: 78%
% damage in ZEAMA [10, 15]: 8%
Herbicidal action as % damage in CHEAL (Chenopodium album [11]): 94%
Herbicidal action as % damage in SETVI (Setaria viridis [12]): 96%

COc1ccc(C=CC(=O)O)cc1 [Comp. 154, 4-methoxycinnamic acid]
Herbicidal action as % damage in AMARE (Amaranthus retroflexus [6]; [14]): 96%
Herbicidal action as % damage in SETVI (Setaria viridis [7]; [14]): 95%
Safener action as % damage reduction in crop plants [10, 14]: 67%
% damage in ZEAMA [10, 15]: 12%

CCOC(=O)C=Cc1cccc(O)c1 [Comp. 191, ethyl 3-hydroxycinnamate]
Herbicidal action as % damage in AMARE (Amaranthus retroflexus [6]; [14]): 99%
Herbicidal action as % damage in SETVI (Setaria viridis [7]; [14]): 96%
Safener action as % damage reduction in crop plants [10, 14]: 56%
% damage in ZEAMA [10, 15]: 16%

COc1cc(OC)nc(NC(=O)NS(=O)(=O)c2cc(NC=O)ccc2C(=O)N(C)C)n1 [Herbicide H2, foramsulfuron, reference compound]
Herbicidal action as % damage in AMARE (Amaranthus retroflexus [6]; [16]): 94%
Herbicidal action as % damage in SETVI (Setaria viridis [7]; [16]): 95%
% damage in ZEAMA ([9]; untreated seed (no safener), herbicide H2 (foramsulfuron) 40 g a.i./ha post-emergence): 32%
% damage in ZEAMA ([10]; herbicide H2 (foramsulfuron) 40 g a.i./ha alone, no safener, post-emergence, four weeks): 36%
